From patent US11331299B2, “Medicinal use of serrulatane diterpenes” (The University of Sydney, priority 2016, dated 2022)

Biological target: T1, HDAC6 (h) (Homo sapiens, UniProt Q9UBN7)
T1 sequence (Q9UBN7 1-1215): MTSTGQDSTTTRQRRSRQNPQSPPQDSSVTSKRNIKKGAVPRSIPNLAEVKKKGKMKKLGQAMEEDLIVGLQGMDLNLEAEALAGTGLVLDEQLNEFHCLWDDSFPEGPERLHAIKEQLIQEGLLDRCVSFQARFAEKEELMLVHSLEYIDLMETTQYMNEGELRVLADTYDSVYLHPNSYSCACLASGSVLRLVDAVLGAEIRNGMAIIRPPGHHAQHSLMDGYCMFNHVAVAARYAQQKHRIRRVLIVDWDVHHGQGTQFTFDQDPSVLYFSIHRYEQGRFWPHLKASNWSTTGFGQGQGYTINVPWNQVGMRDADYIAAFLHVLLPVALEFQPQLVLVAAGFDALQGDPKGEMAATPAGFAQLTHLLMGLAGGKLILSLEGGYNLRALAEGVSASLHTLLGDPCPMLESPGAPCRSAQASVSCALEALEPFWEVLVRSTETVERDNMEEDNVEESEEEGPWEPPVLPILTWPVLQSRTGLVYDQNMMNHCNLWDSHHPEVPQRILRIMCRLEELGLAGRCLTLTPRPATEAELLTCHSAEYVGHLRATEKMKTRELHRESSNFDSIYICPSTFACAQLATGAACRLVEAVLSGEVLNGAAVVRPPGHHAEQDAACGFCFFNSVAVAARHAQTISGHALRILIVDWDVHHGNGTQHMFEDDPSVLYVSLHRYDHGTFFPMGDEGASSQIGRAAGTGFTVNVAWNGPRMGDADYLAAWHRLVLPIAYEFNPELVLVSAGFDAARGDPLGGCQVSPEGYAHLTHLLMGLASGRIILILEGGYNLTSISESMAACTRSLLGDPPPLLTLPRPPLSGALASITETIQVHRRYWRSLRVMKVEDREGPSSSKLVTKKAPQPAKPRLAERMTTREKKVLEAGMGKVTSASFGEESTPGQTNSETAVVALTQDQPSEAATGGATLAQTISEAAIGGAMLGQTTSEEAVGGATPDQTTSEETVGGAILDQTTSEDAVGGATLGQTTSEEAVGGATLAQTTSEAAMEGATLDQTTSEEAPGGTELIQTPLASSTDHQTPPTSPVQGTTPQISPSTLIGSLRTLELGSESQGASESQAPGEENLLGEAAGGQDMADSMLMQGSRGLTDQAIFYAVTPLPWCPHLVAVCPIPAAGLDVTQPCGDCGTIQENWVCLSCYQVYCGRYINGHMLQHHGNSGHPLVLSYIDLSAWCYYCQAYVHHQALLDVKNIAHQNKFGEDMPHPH
Assay: Epigenetic enzyme assay, Histone deacetylase (HDACs)
Format: biochemical
Details: read-out: % Inhibition of Control Values

Row | Compound | inhibition at 10 µM [%]
1 | CC(C)=CCC[C@H](CO)[C@@H]1CC[C@@H](C)c2c1cc(C)c(O)c2O [Compound 1, 7,8,18-trihydroxyserrulat-14-ene] | 12
2 | CC(C)=CCC[C@@H]1COc2c(C)cc(O)c3c2[C@H]1CC[C@H]3C [Compound 3, 5,18-epoxy-8-hydroxyserrulat-14-ene] | -18
3 | CC(C)=CCC[C@@H]1C(O)Oc2c(C)cc(O)c3c2[C@H]1CC[C@H]3C (stereo partly drawn) [Compound 2, 5,18-epoxyserrulat-14-en-8,18-diol] | 2
